Laboratory results as given in paper PMC12775422 (NPJ Biofilms and Microbiomes, 2025).

Biological target: T1, ferredoxin PA1551 (Pseudomonas aeruginosa, UniProt Q9I3G6)
T1 sequence (Q9I3G6 1-471): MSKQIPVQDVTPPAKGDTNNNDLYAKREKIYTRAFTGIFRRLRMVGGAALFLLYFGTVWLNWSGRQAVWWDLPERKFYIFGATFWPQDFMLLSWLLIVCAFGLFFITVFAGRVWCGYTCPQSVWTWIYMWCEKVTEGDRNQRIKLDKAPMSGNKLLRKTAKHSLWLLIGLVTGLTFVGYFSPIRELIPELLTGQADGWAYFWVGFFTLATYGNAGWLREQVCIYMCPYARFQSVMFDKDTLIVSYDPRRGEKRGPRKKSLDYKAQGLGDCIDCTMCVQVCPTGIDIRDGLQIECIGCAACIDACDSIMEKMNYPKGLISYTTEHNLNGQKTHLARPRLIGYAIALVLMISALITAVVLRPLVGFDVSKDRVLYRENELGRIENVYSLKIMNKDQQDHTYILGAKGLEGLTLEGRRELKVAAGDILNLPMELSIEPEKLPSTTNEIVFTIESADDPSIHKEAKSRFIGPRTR
Assay: microscale thermophoresis
Type: binding

Kd: 57 nM
Compound: CCCCCCC(=O)NCc1c(O)c(=O)cc(C)n1C [10d, 2-(heptanamido)methyl 3-hydroxy-1,6-dimethylpyridin-4(1H)-one]
